Measurements taken from patent publication US20040028749A1, “Treating inflammation and associated complications” (priority 2000, published 2004).

Molecular target: MPO (Homo sapiens, UniProt P05164)
Assay: Stopped-flow kinetics of NO with MPO
Type: biochemical
Design: MPO was initially purified from detergent extracts of human leukocytes; from tissue; host or cells: human leukocytes (detergent extracts)
Protocol: […] EPO was isolated from porcine whole blood obtained fresh at the slaughterhouse as described by Jorg et al. (1982) Biochim Biophys Acta 701:185-191. EPO was assayed by guaiacol oxidation (see Klebanoff et al. (1984) Methods Enzymol. 105:399-403). […] The concentration of the MPO dimer was calculated as half the indicated concentration of heme-like chromophore. Bovine LPO was obtained from Worthington Biochemistry Corporation (Lakewood, N.J.) and used without further purification.
To examine the kinetics of interaction between NO and MPO Compounds I and II, stopped-flow spectroscopy was used. The kinetics of Compound II formation and decay in the absence and presence of different NO concentrations were performed using a dual syringe stopped-flow instrument obtained from Hi-Tech Ltd (model SF-51). Measurements were carried out under anaerobic atmosphere, at 25° C. and monitored at 455 nm (an isosbestic point of Compound I and MPO ground state) following rapid mixing of equal volumes of an H202-containing buffer solution and an MPO solution that contained different NO concentrations. The time course of absorbance change was fit to either single or double exponential functions as indicated. The rate constants for the formation (kon) and decay (koff) of the MPO-Fe(III)-NO complex in the presence of plasma levels of the alternative substrate Cl^− (100 mM) were determined by monitoring absorbance change at 430 nm at 10° C. […]
Rapid kinetic studies were initially performed under Cl^− free conditions using 2 co-substrates, a fixed (low) level of H2O2 and variable levels of NO. […] The subsequent decrease in absorbance at 455 nm observed was also fit to a single exponential function with a rate constant of […] and was attributed to the decay of compound II.
(An anaerobic solution containing sodium phosphate buffer (200 mM, pH 7.0) supplemented with H2O2 (20 μM) was rapidly mixed with an equal volume of buffer containing 0.86 μM of MPO-Fe(III) and differing concentrations of NO at 25° C.) NO was readily used as a one e^− substrate by Compound I, as indicated by the rapid buildup of MPO Compound II. […]
In a parallel series of experiments, the influence of NO on the kinetics of MPO Compound II buildup, duration, and decay during steady-state catalysis in the presence of plasma levels of the competing substrate Cl^− was examined. Reactions were again performed under anaerobic conditions and the absorbance change at 455 nm monitored following rapid mixing of enzyme and various concentrations of NO (2.5, 12.5, 25 and 50 μM final) in the presence of H202 (10 μM final) and Cl^− (100 mM final). Anaerobic spectra of MPO-Fe(III) were recorded at 25° C. in septum-sealed quartz cuvettes that were equipped with a quick-fit joint for attachment to a vacuum system. […]

Sequence of MPO (P05164 279-745 limits assumed): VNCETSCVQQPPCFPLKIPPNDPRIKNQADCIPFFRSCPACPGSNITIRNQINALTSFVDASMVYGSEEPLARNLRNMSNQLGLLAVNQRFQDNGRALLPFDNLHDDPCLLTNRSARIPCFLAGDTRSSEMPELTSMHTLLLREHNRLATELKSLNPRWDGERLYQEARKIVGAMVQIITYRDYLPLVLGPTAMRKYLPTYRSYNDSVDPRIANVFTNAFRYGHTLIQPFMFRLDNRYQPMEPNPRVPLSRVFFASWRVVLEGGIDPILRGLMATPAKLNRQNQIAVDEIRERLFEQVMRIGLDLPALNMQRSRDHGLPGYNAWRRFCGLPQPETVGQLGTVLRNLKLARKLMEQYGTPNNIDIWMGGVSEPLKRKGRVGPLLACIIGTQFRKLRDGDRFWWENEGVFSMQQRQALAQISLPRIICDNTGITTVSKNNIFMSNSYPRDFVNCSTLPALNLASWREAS
Sequence of MPO (P05164 165-273 limits assumed): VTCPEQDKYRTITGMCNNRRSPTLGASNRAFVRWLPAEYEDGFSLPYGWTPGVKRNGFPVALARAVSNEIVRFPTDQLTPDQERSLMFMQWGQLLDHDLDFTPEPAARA

In the case of `[N]=O` [NO, nitric oxide], the “enhancement of rate of MPO Compound II accumulation” value (10 μM H2O2, Cl^− free, 25° C.) is reported as ~20 fold, the koff (100 mM Cl^−, 11° C., read-out: koff for NO binding to MPO-Fe(III)) is reported as 22.3 s⁻¹ and the kon (100 mM Cl^−, 11° C., read-out: kon for NO binding to MPO-Fe(III)) is reported as 150000 M⁻¹ s⁻¹. The “second order rate constant of MPO Compound II decay” value (Cl^− free, 25° C.) was 8×10^3 M^−1S^−1.
